Measured values taken from PubChem BioAssay AID1259408 (Genetic Toxicology Data Bank (GENE-TOX), 2018).
Active and inactive are the calls of the source. No rule for the calls is given here.

Test system: GENE-TOX genotoxicity assays, various organisms and cells
Assay: GENE-TOX mutagenicity studies
Settings: for call: Assay Type: In vivo carcinogenicity studies, Assay Code: CCGT
[1] = Species/Cell Type: Allium cepa, Assay Type: Chromosome aberrations, Assay Code: ALC+, Evaluation Type: Evaluation A (Pre-1980)
[2] = Species/Cell Type: Nonhuman, Evaluation Type: Evaluation A (Pre-1980)
[3] = Species/Cell Type: Salmonella typhimurium (one or more of the five standard strains: TA98, TA100, TA1535, TA1537, and TA1538), Assay Type: Histidine reverse gene mutation, Ames assay, Assay Code: SALT, Evaluation Type: Evaluation A (Pre-1980)
[4] = Species/Cell Type: Mammalian polychromatic erythrocytes, Assay Type: Micronucleus test, chromosome aberrations, Assay Code: MNT+, Evaluation Type: Evaluation B (Post-1980)
[5] = Species/Cell Type: Salmonella typhimurium (one or more of the five standard strains: TA98, TA100, TA1535, TA1537, and TA1538), Assay Type: Histidine reverse gene mutation, Ames assay, Assay Code: SAL+*, Activation: With metabolic activation, Evaluation Type: Evaluation A (Pre-1980)

## O=C(O)[C@@H]1[C@H](C(=O)O)[C@H]2CC[C@@H]1O2
[1]
  mutagenic call: active; positive

## CS(=O)(=O)OC/C=C/COS(C)(=O)=O
Species/Cell Type: Drosophila melanogaster, Assay Type: Sex-linked recessive lethal gene mutation, Assay Code: SRL+, Evaluation Type: Evaluation A (Pre-1980)
  mutagenic call: active; positive

## c1c(N2CC2)nc(N2CC2)nc1N1CC1
Species/Cell Type: Aspergillus nidulans, Assay Type: Reverse gene mutation, Assay Code: ASR+, Evaluation Type: Evaluation A (Pre-1980)
  mutagenic call: active; positive

## O=C1C=Cc2ccc3c4c(ccc1c24)C(=O)c1ccccc1-3
Species/Cell Type: Chinese hamster lung (V79) cells, Assay Type: Forward gene mutation at the HPRT or ouabain locus, Assay Code: V79+, Evaluation Type: Evaluation A (Pre-1980)
  mutagenic call: active; positive
[2]
  call: no conclusion
[3]
  mutagenic call: no conclusion

## C=CCOc1ccccc1OCC(O)CNC(C)C (centres undefined)
[4]
  mutagenic call: active; positive

## O=[N+]([O-])c1ccc2ccc3cc4ccccc4c4ccc1c2c34
Species/Cell Type: Chinese hamster ovary (CHO) cells, Assay Type: Forward gene mutation at the HPRT locus, Assay Code: CHO+*, Activation: With metabolic activation, Evaluation Type: Evaluation B (Post-1980)
  mutagenic call: active; positive

## Oc1ccc2cc3ccc4cccc5ccc(c2c1)c3c45
Species/Cell Type: Chinese hamster lung (V79) cells, Assay Type: Forward gene mutation at the HPRT or ouabain locus, Assay Code: V79+/-*, Activation: With metabolic activation, Evaluation Type: Evaluation A (Pre-1980)
  mutagenic call: inactive; positive without activation, negative with activation
[2]
  call: no conclusion
[5]
  mutagenic call: active; positive

## CCN(CC)c1ccc(C(=C2C=CC(=[N+](CC)CC)C=C2)c2ccc(S(=O)(=O)O)cc2S(=O)(=O)[O-])cc1
[4]
  mutagenic call: active; positive

## O=S1(=O)OC2(c3ccccc31)c1cc(Br)c(O)c(Br)c1Oc1c2cc(Br)c(O)c1Br
Species/Cell Type: Salmonella typhimurium (one or more of the five standard strains: TA98, TA100, TA1535, TA1537, and TA1538), Assay Type: Histidine reverse gene mutation, Ames assay, Assay Code: SAL+, Evaluation Type: Evaluation A (Pre-1980)
  mutagenic call: active; positive

## Nc1c(F)cc(-c2cc(F)c(N)c(F)c2)cc1F
Species/Cell Type: Human diploid fibroblasts, Assay Type: Unscheduled DNA synthesis (UDS) in vitro, DNA effects, Assay Code: UDH+*, Activation: With metabolic activation, Evaluation Type: Evaluation A (Pre-1980)
  mutagenic call: active; positive
[5]
  mutagenic call: active; positive

## [Cl][Cu]
Species/Cell Type: Bacillus subtilis (H17 vs M45), Assay Type: Rec-assay, spot test, DNA effects (bacterial DNA repair), Assay Code: REW-, Evaluation Type: Evaluation A (Pre-1980)
  mutagenic call: inactive; negative

## CCCCN(CC(O)CC)N=O (centres undefined)
[5]
  mutagenic call: active; positive

## CNC(=O)O/N=C(\C)SC
Species/Cell Type: Bacillus subtilis (H17 vs M45), Assay Type: Rec-assay, spot test, DNA effects (bacterial DNA repair), Assay Code: REWT, Evaluation Type: Evaluation A (Pre-1980)
  mutagenic call: no conclusion
Species/Cell Type: Drosophila melanogaster, Assay Type: Sex-linked recessive lethal gene mutation, Assay Code: SRL-, Evaluation Type: Evaluation A (Pre-1980)
  mutagenic call: inactive; negative
Species/Cell Type: Escherichia coli WP2 UVRA, Assay Type: Tryptophan reverse gene mutation, Assay Code: WPU-*, Activation: With metabolic activation, Evaluation Type: Evaluation A (Pre-1980)
  mutagenic call: inactive; negative
Species/Cell Type: Escherichia coli polA (W3119 vs P3478), Assay Type: Rec-assay, DNA effects (bacterial DNA repair), Assay Code: RE1T, Evaluation Type: Evaluation A (Pre-1980)
  mutagenic call: no conclusion
Species/Cell Type: Human diploid fibroblasts, Assay Type: Unscheduled DNA synthesis (UDS) in vitro, DNA effects, Assay Code: UDH-, Evaluation Type: Evaluation A (Pre-1980)
  mutagenic call: inactive; negative
Species/Cell Type: Saccharomyces cerevisiae, Assay Type: Mitotic recombination or gene conversion, Assay Code: YEH-, Evaluation Type: Evaluation A (Pre-1980)
  mutagenic call: inactive; negative
[3]
  mutagenic call: no conclusion

## O=Cc1ccccc1
Species/Cell Type: Neurospora crassa, Assay Type: Reverse gene mutation, Assay Code: NER+, Evaluation Type: Evaluation A (Pre-1980)
  mutagenic call: active; positive

## C[n+]1ccc(-c2cc[n+](C)cc2)cc1
[1]
  mutagenic call: active; positive
Species/Cell Type: Hordeum vulgare (barley), Assay Type: Chromosome aberrations, Assay Code: HOC+, Evaluation Type: Evaluation A (Pre-1980)
  mutagenic call: active; positive
Species/Cell Type: Nonhuman, Assay Type: Sister-chromatid exchange (SCE) in vitro, Assay Code: SC2+D, Dose Response: With dose response, Evaluation Type: Evaluation B (Post-1980)
  mutagenic call: active; positive
Species/Cell Type: Rodents, Sex: Male, Assay Type: Dominant lethal test, Assay Code: DLT-, Evaluation Type: Evaluation A (Pre-1980)
  mutagenic call: inactive; negative
Species/Cell Type: Saccharomyces cerevisiae, Assay Type: Mitotic recombination or gene conversion, Assay Code: YEC+, Evaluation Type: Evaluation A (Pre-1980)
  mutagenic call: active; positive
Species/Cell Type: Vicia faba, Assay Type: Chromosome aberrations, Assay Code: VIC-, Evaluation Type: Evaluation A (Pre-1980)
  mutagenic call: inactive; negative

## CCN(CC)c1ccc(N=Nc2ccccc2C(=O)O)cc1
Species/Cell Type: Drosophila melanogaster, Assay Type: Sex-linked recessive lethal gene mutation, Assay Code: SRLT, Evaluation Type: Evaluation A (Pre-1980)
  mutagenic call: no conclusion

## CCN(CC)CCCNC(=O)C(=O)N/N=C/c1ccc([N+](=O)[O-])o1
Species/Cell Type: Escherichia coli WP2 UVRA, Assay Type: Tryptophan reverse gene mutation, Assay Code: WPU+D, Dose Response: With dose response, Evaluation Type: Evaluation A (Pre-1980)
  mutagenic call: active; positive

## CC(=O)O[C@]1(C(C)=O)CC[C@H]2[C@@H]3C=C(Cl)C4=CC(=O)[C@@H]5C[C@@H]5[C@]4(C)[C@H]3CC[C@@]21C
Species/Cell Type: Human, Sex: Male, Assay Type: Sperm morphology, Assay Code: SPH+, Evaluation Type: Evaluation A (Pre-1980)
  mutagenic call: active; positive
